Experimental data from patent US7846959B2, “Raf modulators and methods of use” (Exelixis, Inc., priority 2004, dated 2010).

Assays:
[1] = biological target: c-Raf (Homo sapiens, UniProt P04049); experiment: Luciferase-coupled chemiluminescence kinase assay (ATP consumption), c-Raf; format: biochemical; settings: read-out: cRaf-1 IC50
Method in brief: (§1)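 Compound is first mixed with […] Raf enzyme in 20 mM Tris pH 7.5 containing 10 mM MgCl2, 0.03% TX-100 and 1 mM DTT (30 min, room temperature). ATP then starts a 3 h reaction, and unconsumed ATP is detected by chemiluminescence.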

[2] = biological target: B-Raf (Homo sapiens, UniProt P15056); experiment: Luciferase-coupled chemiluminescence kinase assay (ATP consumption), B-Raf; format: biochemical; settings: read-out: bRaf IC50
Chain of B-Raf (P15056 whole entry): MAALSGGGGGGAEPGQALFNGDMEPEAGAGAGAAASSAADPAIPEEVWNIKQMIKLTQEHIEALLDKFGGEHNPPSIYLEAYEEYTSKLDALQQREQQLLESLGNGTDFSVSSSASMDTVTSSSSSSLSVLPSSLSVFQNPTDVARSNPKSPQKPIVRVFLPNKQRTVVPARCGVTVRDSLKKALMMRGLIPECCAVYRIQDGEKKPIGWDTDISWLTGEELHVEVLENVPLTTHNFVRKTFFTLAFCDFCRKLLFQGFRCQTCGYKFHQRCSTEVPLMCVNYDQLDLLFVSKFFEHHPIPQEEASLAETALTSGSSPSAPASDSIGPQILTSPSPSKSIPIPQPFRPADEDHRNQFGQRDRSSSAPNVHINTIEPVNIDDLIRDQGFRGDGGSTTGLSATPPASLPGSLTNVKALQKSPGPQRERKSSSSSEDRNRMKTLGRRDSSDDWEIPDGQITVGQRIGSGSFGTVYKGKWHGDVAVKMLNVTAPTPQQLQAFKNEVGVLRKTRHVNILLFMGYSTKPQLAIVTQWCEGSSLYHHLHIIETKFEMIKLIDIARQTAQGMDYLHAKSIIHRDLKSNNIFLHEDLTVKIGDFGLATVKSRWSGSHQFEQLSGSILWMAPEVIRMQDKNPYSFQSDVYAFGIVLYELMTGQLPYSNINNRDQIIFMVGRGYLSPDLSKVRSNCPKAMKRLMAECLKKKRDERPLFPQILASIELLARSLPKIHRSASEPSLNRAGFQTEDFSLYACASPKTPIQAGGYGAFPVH
Method in brief: as §1

Chain of c-Raf (P04049 whole entry): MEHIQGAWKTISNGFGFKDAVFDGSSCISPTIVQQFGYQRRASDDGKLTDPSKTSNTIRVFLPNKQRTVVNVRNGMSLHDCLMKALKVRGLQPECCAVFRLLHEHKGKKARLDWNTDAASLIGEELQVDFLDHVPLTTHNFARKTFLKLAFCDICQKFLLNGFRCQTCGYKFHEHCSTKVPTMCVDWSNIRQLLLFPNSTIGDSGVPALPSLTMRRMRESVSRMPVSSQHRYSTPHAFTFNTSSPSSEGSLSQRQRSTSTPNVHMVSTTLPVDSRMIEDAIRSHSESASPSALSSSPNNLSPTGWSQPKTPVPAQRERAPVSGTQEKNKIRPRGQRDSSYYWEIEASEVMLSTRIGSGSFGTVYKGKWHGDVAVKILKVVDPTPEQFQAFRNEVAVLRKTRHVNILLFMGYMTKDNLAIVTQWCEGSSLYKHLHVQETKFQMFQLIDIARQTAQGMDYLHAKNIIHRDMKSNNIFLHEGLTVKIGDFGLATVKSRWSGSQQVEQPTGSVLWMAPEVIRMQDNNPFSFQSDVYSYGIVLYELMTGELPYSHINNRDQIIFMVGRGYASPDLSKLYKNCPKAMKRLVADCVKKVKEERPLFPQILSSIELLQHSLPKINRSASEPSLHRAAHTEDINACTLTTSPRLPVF

| Structure (SMILES) | IC50 [1] [nM] | IC50 [2] [nM] |
| --- | --- | --- |
| C=CCCOC(=O)Nc1nc2cc(C3(O)c4ccccc4C(=O)N3Cc3ccccc3)ccc2[nH]1 (stereo not shown) [Entry 195, but-3-en-1-yl {5-[1-hydroxy-3-oxo-2-(phenylmethyl)-2,3-dihydro-1H-isoindol-1-yl]-1H-benzimidazol-2-yl}carbamate] | < 100 | < 100 |
| O=C(Nc1nc2cc(C3(O)c4ccccc4C(=O)N3Cc3ccccc3)ccc2[nH]1)OCC(F)(F)F (stereo not shown) [Entry 196, 2,2,2-trifluoroethyl {5-[1-hydroxy-3-oxo-2-(phenylmethyl)-2,3-dihydro-1H-isoindol-1-yl]-1H-benzimidazol-2-yl}carbamate] | < 100 | < 100 |
| COC(=O)Nc1nc2cc(C3(O)c4ccccc4C(=O)N3c3cc(Cl)ccc3F)ccc2[nH]1 (stereo not shown) [Entry 197, methyl {5-[2-(5-chloro-2-fluorophenyl)-1-hydroxy-3-oxo-2,3-dihydro-1H-isoindol-1-yl]-1H-benzimidazol-2-yl}carbamate] | < 100 | < 100 |
| COC(=O)Nc1nc2cc(C3(O)c4ccccc4C(=O)N3C(C)c3cc(Cl)ccc3C)ccc2[nH]1 (stereo not shown) [Entry 198, methyl (5-{2-[1-(5-chloro-2-methylphenyl)ethyl]-1-hydroxy-3-oxo-2,3-dihydro-1H-isoindol-1-yl}-1H-benzimidazol-2-yl)carbamate] | 1000 to 10000 | 1000 to 10000 |
| CC[C@@H](c1ccccc1)N1C(=O)c2ccccc2C1(O)c1ccc2[nH]c(NC(=O)OC)nc2c1 (stereo partly drawn) [Entry 199, methyl (5-{1-hydroxy-3-oxo-2-[(1S)-1-phenylpropyl]-2,3-dihydro-1H-isoindol-1-yl}-1H-benzimidazol-2-yl)carbamate] | 1000 to 10000 | 1000 to 10000 |
| COC(=O)Nc1nc2cc(C3(O)c4ccccc4C(=O)N3C(C)c3cccc(Cl)c3C)ccc2[nH]1 (stereo not shown) [Entry 200, methyl (5-{2-[1-(3-chloro-2-methylphenyl)ethyl]-1-hydroxy-3-oxo-2,3-dihydro-1H-isoindol-1-yl}-1H-benzimidazol-2-yl)carbamate] | 1000 to 10000 | 1000 to 10000 |
| COC(=O)Nc1nc2cc(C3(O)c4ccccc4C(=O)N3C(C)c3ccc(C)s3)ccc2[nH]1 (stereo not shown) [Entry 201, methyl (5-{1-hydroxy-2-[1-(5-methyl-2-thienyl)ethyl]-3-oxo-2,3-dihydro-1H-isoindol-1-yl}-1H-benzimidazol-2-yl)carbamate] | < 100 | < 100 |
| COC(=O)Nc1nc2cc(C3(O)c4ccccc4C(=O)N3C(C)c3ccc(Cl)s3)ccc2[nH]1 (stereo not shown) [Entry 202, methyl (5-{2-[1-(5-chloro-2-thienyl)ethyl]-1-hydroxy-3-oxo-2,3-dihydro-1H-isoindol-1-yl}-1H-benzimidazol-2-yl)carbamate] | < 100 | < 100 |
| COC(=O)Nc1nc2cc(C3(O)c4ccccc4C(=O)N3c3cccc(I)c3)ccc2[nH]1 (stereo not shown) [Entry 203, methyl {5-[1-hydroxy-2-(3-iodophenyl)-3-oxo-2,3-dihydro-1H-isoindol-1-yl]-1H-benzimidazol-2-yl}carbamate] | < 100 | < 100 |
| COC(=O)Nc1nc2cc(C3(O)c4ccccc4C(=O)N3c3cccc(C(C)C)c3)ccc2[nH]1 (stereo not shown) [Entry 204, methyl (5-{1-hydroxy-2-[3-(1-methylethyl)phenyl]-3-oxo-2,3-dihydro-1H-isoindol-1-yl}-1H-benzimidazol-2-yl)carbamate] | < 100 | < 100 |
| COC(=O)Nc1nc2cc(C3(O)c4ccccc4C(=O)N3Cc3ccco3)ccc2[nH]1 (stereo not shown) [Entry 205, methyl {5-[2-(furan-2-ylmethyl)-1-hydroxy-3-oxo-2,3-dihydro-1H-isoindol-1-yl]-1H-benzimidazol-2-yl}carbamate] | < 100 | < 100 |
| COC(=O)Nc1nc2cc(C3(O)c4ccccc4C(=O)N3Cc3ccsc3)ccc2[nH]1 (stereo not shown) [Entry 206, methyl {5-[1-hydroxy-3-oxo-2-(3-thienylmethyl)-2,3-dihydro-1H-isoindol-1-yl]-1H-benzimidazol-2-yl}carbamate] | < 100 | < 100 |
| COC(=O)Nc1nc2cc(C3(O)c4ccccc4C(=O)N3CC3CCC3)ccc2[nH]1 (stereo not shown) [Entry 207, methyl {5-[2-(cyclobutylmethyl)-1-hydroxy-3-oxo-2,3-dihydro-1H-isoindol-1-yl]-1H-benzimidazol-2-yl}carbamate] | < 100 | < 100 |
| O=C1c2ccccc2C(O)(c2ccc3[nH]c(NC(=O)C(O)(C(F)(F)F)C(F)(F)F)nc3c2)N1Cc1ccccc1 (stereo not shown) [Entry 208, 3,3,3-trifluoro-2-hydroxy-N-{5-[1-hydroxy-3-oxo-2-(phenylmethyl)-2,3-dihydro-1H-isoindol-1-yl]-1H-benzimidazol-2-yl}-2-(trifluoromethyl)propanamide] | 1000 to 10000 | 1000 to 10000 |
| COC(=O)Nc1nc2cc(C3(O)c4ccccc4C(=O)N3C(C)c3cc(C)cs3)ccc2[nH]1 (stereo not shown) [Entry 209, methyl (5-{1-hydroxy-2-[1-(4-methyl-2-thienyl)ethyl]-3-oxo-2,3-dihydro-1H-isoindol-1-yl}-1H-benzimidazol-2-yl)carbamate] | < 100 | < 100 |
| COC(=O)Nc1nc2cc(C3(O)c4ccccc4C(=O)N3C(C)c3cc(Br)cs3)ccc2[nH]1 (stereo not shown) [Entry 210, methyl (5-{2-[1-(4-bromo-2-thienyl)ethyl]-1-hydroxy-3-oxo-2,3-dihydro-1H-isoindol-1-yl}-1H-benzimidazol-2-yl)carbamate] | < 100 | < 100 |
| COCCOc1cccc(N2C(=O)c3ccccc3C2(O)c2ccc3[nH]c(NC(=O)OC)nc3c2)c1 (stereo not shown) [Entry 211, methyl {5-[1-hydroxy-2-(3-{[2-(methyloxy)ethyl]oxy}phenyl)-3-oxo-2,3-dihydro-1H-isoindol-1-yl]-1H-benzimidazol-2-yl}carbamate] | 1000 to 10000 | 1000 to 10000 |
| O=C(Nc1nc2cc(C3(O)c4ccccc4C(=O)N3Cc3ccccc3)ccc2[nH]1)OCC1CCOC1 (stereo not shown) [Entry 212, tetrahydrofuran-3-ylmethyl {5-[1-hydroxy-3-oxo-2-(phenylmethyl)-2,3-dihydro-1H-isoindol-1-yl]-1H-benzimidazol-2-yl}carbamate] | < 100 | < 100 |
| O=C(Nc1nc2cc(C3(O)c4ccccc4C(=O)N3Cc3ccccc3)ccc2[nH]1)N1CCCCC1 (stereo not shown) [Entry 213, N-{5-[1-hydroxy-3-oxo-2-(phenylmethyl)-2,3-dihydro-1H-isoindol-1-yl]-1H-benzimidazol-2-yl}piperidine-1-carboxamide] | 100 to 1000 | 1000 to 10000 |
| COC(=O)Nc1nc2cc(C3(O)c4ccccc4C(=O)N3c3ccc(F)c(Br)c3)ccc2[nH]1 (stereo not shown) [Entry 214, methyl {5-[2-(3-bromo-4-fluorophenyl)-1-hydroxy-3-oxo-2,3-dihydro-1H-isoindol-1-yl]-1H-benzimidazol-2-yl}carbamate] | < 100 | < 100 |
| O=C(Nc1nc2cc(C3(O)c4ccccc4C(=O)N3Cc3ccccc3)ccc2[nH]1)OCC(O)CO (stereo not shown) [Entry 215, 2,3-dihydroxypropyl {5-[1-hydroxy-3-oxo-2-(phenylmethyl)-2,3-dihydro-1H-isoindol-1-yl]-1H-benzimidazol-2-yl}carbamate] | < 100 | < 100 |
| COC(=O)Nc1nc2cc(C3(O)c4ccccc4C(=O)N3CC3CCCO3)ccc2[nH]1 (stereo not shown) [Entry 216, methyl {5-[1-hydroxy-3-oxo-2-(tetrahydrofuran-2-ylmethyl)-2,3-dihydro-1H-isoindol-1-yl]-1H-benzimidazol-2-yl}carbamate] | 100 to 1000 | 100 to 1000 |
| COC(=O)Nc1nc2cc(C3(O)c4ccccc4C(=O)N3c3cccc(C(N)=O)c3)ccc2[nH]1 (stereo not shown) [Entry 217, methyl (5-{2-[3-(aminocarbonyl)phenyl]-1-hydroxy-3-oxo-2,3-dihydro-1H-isoindol-1-yl}-1H-benzimidazol-2-yl)carbamate] | 100 to 1000 | < 100 |
| O=C(CC(O)(C(F)(F)F)C(F)(F)F)Nc1nc2cc(C3(O)c4ccccc4C(=O)N3Cc3ccccc3)ccc2[nH]1 (stereo not shown) [Entry 218, 4,4,4-trifluoro-3-hydroxy-N-{5-[1-hydroxy-3-oxo-2-(phenylmethyl)-2,3-dihydro-1H-isoindol-1-yl]-1H-benzimidazol-2-yl}-3-(trifluoromethyl)butanamide] | 1000 to 10000 | 1000 to 10000 |
| COC(=O)Nc1nc2cc(C3(O)c4ccccc4C(=O)N3c3cccc(S(C)(=O)=O)c3)ccc2[nH]1 (stereo not shown) [Entry 219, methyl (5-{1-hydroxy-2-[3-(methylsulfonyl)phenyl]-3-oxo-2,3-dihydro-1H-isoindol-1-yl}-1H-benzimidazol-2-yl)carbamate] | 100 to 1000 | 100 to 1000 |
| COC(=O)Nc1nc2cc(C3(O)c4ccccc4C(=O)N3c3cccc(Oc4ccccc4)c3)ccc2[nH]1 (stereo not shown) [Entry 220, methyl (5-{1-hydroxy-3-oxo-2-[3-(phenyloxy)phenyl]-2,3-dihydro-1H-isoindol-1-yl}-1H-benzimidazol-2-yl)carbamate] | < 100 | < 100 |
| COC(=O)Nc1nc2cc(C3(O)c4ccccc4C(=O)N3c3cccc(OCc4ccccc4)c3)ccc2[nH]1 (stereo not shown) [Entry 221, methyl [5-(1-hydroxy-3-oxo-2-{3-[(phenylmethyl)oxy]phenyl}-2,3-dihydro-1H-isoindol-1-yl)-1H-benzimidazol-2-yl]carbamate] | < 100 | 100 to 1000 |
| COC(=O)Nc1nc2cc(C3(O)c4ccccc4C(=O)N3c3cccc(-c4ccccc4)c3)ccc2[nH]1 (stereo not shown) [Entry 222, methyl [5-(2-biphenyl-3-yl-1-hydroxy-3-oxo-2,3-dihydro-1H-isoindol-1-yl)-1H-benzimidazol-2-yl]carbamate] | 1000 to 10000 | 1000 to 10000 |
| CC(C)(COCc1ccccc1)COC(=O)Nc1nc2cc(C3(O)c4ccccc4C(=O)N3Cc3ccccc3)ccc2[nH]1 (stereo not shown) [Entry 223, 2,2-dimethyl-3-[(phenylmethyl)oxy]propyl {5-[1-hydroxy-3-oxo-2-(phenylmethyl)-2,3-dihydro-1H-isoindol-1-yl]-1H-benzimidazol-2-yl}carbamate] | < 100 | 100 to 1000 |
